According to ChEMBL document CHEMBL3137667, “[Drug-induced liver injury; fourteenth updated edition of the bibliographic database of liver injuries and related drugs]” (Gastroenterol Clin Biol, 2004):

Columns and labels:
[1] = Times to onset, minimal and maximal, observed in the indexed observations. [column 'DELAI' in source]; settings: human
[2] = human
[3] = human; remark: listed apart in the source
[4] = human, serum, 4383 h
[5] = human; remark: listed apart in the source
[6] = human; remark: listed apart in the source
[7] = human; remark: listed apart in the source
[8] = human; remark: listed apart in the source
[9] = human; remark: listed apart in the source
[10] = human; remark: listed apart in the source
[11] = Highest frequency of moderate liver toxicity observed during clinical trials, expressed as a percentage. [column '% BIOL' in source]; settings: human
[12] = Highest frequency of acute liver toxicity observed during clinical trials, expressed as a percentage. [column '% AIGUE' in source]; settings: human
[13] = human, serum
[14] = human; remark: listed apart in the source
[15] = human, serum; remark: listed apart in the source
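For Hepatotoxicity (association with vascular disease) in this document: count of indexed literature references reporting vascular liver injury in humans, e.g. peliosis hepatitis, hepatic veno-occlusive disease or Budd-Chiari syndrome.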
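For Hepatotoxicity (benign tumour) in this document: value is a count of indexed literature references citing a benign tumour confirmed by histopathology.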
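For Hepatotoxicity (choleostasis) in this document: human cholestatic liver injury, shown by histopathology or by peak ALT or AST elevation over alkaline phosphatase ratio below 2, value counts indexed literature reports.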
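For Hepatotoxicity (chronic liver disease) in this document: chronic liver injury confirmed by histopathology or persistently raised serum aminotransferase activity beyond 6 months, value given as the count of indexed literature references.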
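For Hepatotoxicity (cirrhosis) in this document: value is a count of indexed literature references reporting cirrhosis confirmed by histopathology.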
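For Hepatotoxicity (cytolytic) in this document: human cytolytic liver injury, shown by histopathology or by a ratio above 5 of peak ALT or AST elevation to alkaline phosphatase elevation, value counts indexed references.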
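For Hepatotoxicity (granulomatous hepatitis) in this document: value is a count of indexed literature references reporting granulomatous liver disease confirmed by histopathology.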
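For Hepatotoxicity (malignant tumour) in this document: malignant tumour confirmed by histopathology, value gives the count of indexed literature references reporting it.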
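For Hepatotoxicity (severe hepatitis) in this document: human clinical data: severe hepatitis, meaning potentially life-threatening liver failure or clinically observed cases, the value counts how many indexed literature references report it.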
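For Hepatotoxicity (steatosis) in this document: steatosis confirmed by histopathology, value is the count of indexed references.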

Compound	Hepatotoxicity (time to onset) [1]	Hepatotoxicity (cytolytic) [2]	Hepatotoxicity (choleostasis) [3]	Hepatotoxicity (chronic liver disease) [4]	Hepatotoxicity (cirrhosis) [5]	Hepatotoxicity (granulomatous hepatitis) [6]	Hepatotoxicity (association with vascular disease) [7]	Hepatotoxicity (steatosis) [8]	Hepatotoxicity (malignant tumour) [9]	Hepatotoxicity (benign tumour) [10]	Hepatotoxicity (moderate) [11] [%]	Hepatotoxicity (acute) [12] [%]	Hepatotoxicity (moderate) [13]	Hepatotoxicity (severe hepatitis) [14]	Hepatotoxicity (moderate) ([11]; Liver) [%]	Hepatotoxicity (severe hepatitis) ([14]; Liver)	Hepatotoxicity (acute) [15]
COCc1c(C(C)C)nc(C(C)C)c(/C=C/[C@@H](O)C[C@@H](O)CC(=O)O)c1-c1ccc(F)cc1 [CERIVASTATIN]	3 weeks	1	1	0	0	0	0	0	0	0							
CN(C)CCCC1(c2ccc(F)cc2)OCc2cc(C#N)ccc21 (stereo unspecified) [CITALOPRAM]	4 weeks - 2 months	1	1	0	0	0	0	0	0	0	5.3	0	2	1			
O=C(NCC1CCCCN1)c1cc(OCC(F)(F)F)ccc1OCC(F)(F)F (stereo unspecified) [FLECAINIDE]	2 days - 1 month	1	2	0	0	0	0	0	0	0	36.7	0	3	0			
Cc1ccc(NC(=O)c2ccc(CN3CCN(C)CC3)cc2)cc1Nc1nccc(-c2cccnc2)n1 [IMATINIB]	11 days - 12 days	1	0	0	0	0	0	0	0	0			5		100	1	
Cc1nnc2n1-c1ccc(Cl)cc1C(c1ccccc1Cl)=NC2 [TRIAZOLAM]	4 months	1	2	0	0	0	0	0	0	0			1		0	2	
NEDAPLATIN		0	0	0	0	0	0	0	0	0	19.2	0	1	0			0
NYSTATIN		1	0	0	0	0	0	0	0	0	33.3	0	3	0			1
PALIVIZUMAB		0	0	0	0	0	0	0	0	0	3.6	0	1	0			0
POLOXAMER		0	0	0	0	0	0	0	0	0	7.7	0	1	0			0
POVIDONE		0	0	0	1	0	0	0	0	0	0	0	0	0			0
REVIPARIN SODIUM		0	0	0	0	0	0	0	0	0	10.3	0	1	0			0
SODIUM NITROPRUSSIDE		0	0	0	0	0	0	0	0	0	41	0	1	0			0
TINZAPARIN SODIUM		0	0	0	0	0	0	0	0	0	35	0	3	0			0
